Results reported in ChEMBL document CHEMBL3132825, “Preparation of phenylethylbenzamide derivatives as modulators of DNMT3 activity” (Medchemcomm, 2013).
Activity calls are given as the source filed them. No cut-off for these calls is given here.

Tests used:
[1] = target: Histone-lysine N-methyltransferase EZH2 (Homo sapiens) (UniProt Q15910); experiment: Inhibition of EZH2 (unknown origin) using [methyl-3H]SAM and biotinylated nucleosome PRC2 and H3K27Me3 activator peptide up to 80 uM by [3H]methyl group incorporation assay
[2] = target: Histone-lysine N-methyltransferase, H3 lysine-79 specific (Homo sapiens) (UniProt Q8TEK3); experiment: Inhibition of DOT1L (unknown origin) using [methyl-3H]SAM and biotinylated nucleosome PRC2 and H3K27Me3 activator peptide up to 80 uM by [3H]methyl group incorporation assay
[3] = target: DNA (cytosine-5)-methyltransferase 1 (Homo sapiens) (UniProt P26358); experiment: Inhibition of human DNMT1 using [methyl-3H]SAM and biotinylated hemimethylated DNA duplex at 100 uM by [3H]methyl group incorporation assay
[4] = target: DNA (cytosine-5)-methyltransferase 1 (Homo sapiens) (UniProt P26358); experiment: Inhibition of human DNMT1 using [methyl-3H]SAM and biotinylated hemimethylated DNA duplex at 50 to 200 uM by [3H]methyl group incorporation assay
[5] = target: T1, DNA (cytosine-5)-methyltransferase 3A (Homo sapiens, UniProt Q9Y6K1); experiment: Inhibition of human DNMT3A catalytic domain (623 to 912 amino acids) at 100 uM after 1 hr by fluorescence assay
[6] = target: T1, DNA (cytosine-5)-methyltransferase 3A; experiment: Inhibition of human DNMT3A catalytic domain (623 to 912 amino acids) at 10 uM after 1 hr by fluorescence assay
MDA-MB-231 [7] = experiment: Inhibition of DNMT in human MDA-MB-231 cells assessed as reduction in methylation level at 1 uM by luminometric methylation assay; assay type: cell-based
[8] = target: T1, DNA (cytosine-5)-methyltransferase 3A; experiment: Inhibition of human DNMT3A catalytic domain (623 to 912 amino acids) after 1 hr by fluorescence assay
MDA-MB-231 [9] = experiment: Toxicity against human MDA-MB-231 cells; assay type: cell-based
MDA-MB-231 [10] = experiment: Inhibition of DNMT in human MDA-MB-231 cells assessed as reduction in methylation level at 200 uM by luminometric methylation assay; assay type: cell-based
MDA-MB-231 [11] = experiment: Inhibition of DNMT in human MDA-MB-231 cells assessed as reduction in methylation level at 100 uM by luminometric methylation assay; assay type: cell-based

Chain of Histone-lysine N-methyltransferase EZH2 (Homo sapiens) (Q15910 whole entry, looked up): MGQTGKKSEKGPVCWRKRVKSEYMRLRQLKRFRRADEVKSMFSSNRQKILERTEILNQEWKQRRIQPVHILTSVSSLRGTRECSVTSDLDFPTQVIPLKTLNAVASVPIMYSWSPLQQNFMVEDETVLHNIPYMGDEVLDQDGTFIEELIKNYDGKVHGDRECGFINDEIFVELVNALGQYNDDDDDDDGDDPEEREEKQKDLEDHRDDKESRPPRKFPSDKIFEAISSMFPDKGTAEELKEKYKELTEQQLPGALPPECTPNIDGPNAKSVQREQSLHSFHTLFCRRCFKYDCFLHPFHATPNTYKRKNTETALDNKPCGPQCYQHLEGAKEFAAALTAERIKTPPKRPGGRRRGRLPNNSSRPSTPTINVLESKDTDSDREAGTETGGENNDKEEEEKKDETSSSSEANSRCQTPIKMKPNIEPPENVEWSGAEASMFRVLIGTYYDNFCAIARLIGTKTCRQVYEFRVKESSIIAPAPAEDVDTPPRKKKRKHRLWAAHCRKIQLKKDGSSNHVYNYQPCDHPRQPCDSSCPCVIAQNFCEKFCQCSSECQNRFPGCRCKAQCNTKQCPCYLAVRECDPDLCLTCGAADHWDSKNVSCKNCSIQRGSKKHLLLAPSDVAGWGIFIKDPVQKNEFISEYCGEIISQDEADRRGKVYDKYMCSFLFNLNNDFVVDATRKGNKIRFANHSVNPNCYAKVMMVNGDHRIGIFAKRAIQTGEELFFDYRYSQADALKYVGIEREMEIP
Chain of DNA (cytosine-5)-methyltransferase 1 (Homo sapiens) (P26358 whole entry, the tested form may be a part): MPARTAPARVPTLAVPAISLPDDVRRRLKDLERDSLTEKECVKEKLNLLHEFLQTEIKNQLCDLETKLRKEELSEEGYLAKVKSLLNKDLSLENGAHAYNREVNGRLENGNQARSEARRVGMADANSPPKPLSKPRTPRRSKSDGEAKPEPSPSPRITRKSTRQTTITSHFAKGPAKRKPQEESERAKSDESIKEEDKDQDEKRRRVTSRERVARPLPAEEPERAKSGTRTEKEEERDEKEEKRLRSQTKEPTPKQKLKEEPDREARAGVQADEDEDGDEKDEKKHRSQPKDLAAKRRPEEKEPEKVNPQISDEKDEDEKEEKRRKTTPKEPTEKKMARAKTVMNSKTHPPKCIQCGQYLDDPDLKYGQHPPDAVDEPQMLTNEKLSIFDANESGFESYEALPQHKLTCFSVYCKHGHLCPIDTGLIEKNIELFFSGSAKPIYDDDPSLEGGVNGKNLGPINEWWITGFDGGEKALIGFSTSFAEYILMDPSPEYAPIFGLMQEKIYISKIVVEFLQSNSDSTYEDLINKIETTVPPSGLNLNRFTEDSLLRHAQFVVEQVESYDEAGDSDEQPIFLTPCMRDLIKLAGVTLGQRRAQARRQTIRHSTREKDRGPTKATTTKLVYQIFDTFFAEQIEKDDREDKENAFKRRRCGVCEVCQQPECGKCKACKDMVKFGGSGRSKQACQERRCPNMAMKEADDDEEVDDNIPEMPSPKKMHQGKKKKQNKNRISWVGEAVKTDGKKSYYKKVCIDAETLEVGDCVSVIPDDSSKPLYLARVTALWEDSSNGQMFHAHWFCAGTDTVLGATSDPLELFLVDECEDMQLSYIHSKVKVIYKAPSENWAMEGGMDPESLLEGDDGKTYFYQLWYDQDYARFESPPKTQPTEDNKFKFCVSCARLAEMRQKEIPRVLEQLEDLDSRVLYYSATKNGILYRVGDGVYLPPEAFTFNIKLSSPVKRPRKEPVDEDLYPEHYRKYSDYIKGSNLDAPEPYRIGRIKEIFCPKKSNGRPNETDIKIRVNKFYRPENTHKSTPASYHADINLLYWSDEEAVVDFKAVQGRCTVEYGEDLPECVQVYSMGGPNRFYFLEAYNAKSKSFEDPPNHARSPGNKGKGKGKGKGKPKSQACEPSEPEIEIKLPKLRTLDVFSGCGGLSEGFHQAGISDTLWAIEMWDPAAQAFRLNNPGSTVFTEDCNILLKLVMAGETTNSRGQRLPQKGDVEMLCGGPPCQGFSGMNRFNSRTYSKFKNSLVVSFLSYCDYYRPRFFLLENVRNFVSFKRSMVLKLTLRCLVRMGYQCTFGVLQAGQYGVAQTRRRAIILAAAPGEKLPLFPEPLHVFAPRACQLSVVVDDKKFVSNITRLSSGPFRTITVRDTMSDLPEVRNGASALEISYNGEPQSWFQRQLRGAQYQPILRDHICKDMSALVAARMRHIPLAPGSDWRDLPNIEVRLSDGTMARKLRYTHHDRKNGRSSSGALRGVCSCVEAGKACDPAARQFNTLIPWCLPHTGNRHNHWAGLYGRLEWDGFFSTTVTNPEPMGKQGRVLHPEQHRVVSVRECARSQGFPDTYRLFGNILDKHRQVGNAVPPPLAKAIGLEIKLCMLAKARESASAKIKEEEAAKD
Chain of Histone-lysine N-methyltransferase, H3 lysine-79 specific (Homo sapiens) (Q8TEK3 whole entry, looked up): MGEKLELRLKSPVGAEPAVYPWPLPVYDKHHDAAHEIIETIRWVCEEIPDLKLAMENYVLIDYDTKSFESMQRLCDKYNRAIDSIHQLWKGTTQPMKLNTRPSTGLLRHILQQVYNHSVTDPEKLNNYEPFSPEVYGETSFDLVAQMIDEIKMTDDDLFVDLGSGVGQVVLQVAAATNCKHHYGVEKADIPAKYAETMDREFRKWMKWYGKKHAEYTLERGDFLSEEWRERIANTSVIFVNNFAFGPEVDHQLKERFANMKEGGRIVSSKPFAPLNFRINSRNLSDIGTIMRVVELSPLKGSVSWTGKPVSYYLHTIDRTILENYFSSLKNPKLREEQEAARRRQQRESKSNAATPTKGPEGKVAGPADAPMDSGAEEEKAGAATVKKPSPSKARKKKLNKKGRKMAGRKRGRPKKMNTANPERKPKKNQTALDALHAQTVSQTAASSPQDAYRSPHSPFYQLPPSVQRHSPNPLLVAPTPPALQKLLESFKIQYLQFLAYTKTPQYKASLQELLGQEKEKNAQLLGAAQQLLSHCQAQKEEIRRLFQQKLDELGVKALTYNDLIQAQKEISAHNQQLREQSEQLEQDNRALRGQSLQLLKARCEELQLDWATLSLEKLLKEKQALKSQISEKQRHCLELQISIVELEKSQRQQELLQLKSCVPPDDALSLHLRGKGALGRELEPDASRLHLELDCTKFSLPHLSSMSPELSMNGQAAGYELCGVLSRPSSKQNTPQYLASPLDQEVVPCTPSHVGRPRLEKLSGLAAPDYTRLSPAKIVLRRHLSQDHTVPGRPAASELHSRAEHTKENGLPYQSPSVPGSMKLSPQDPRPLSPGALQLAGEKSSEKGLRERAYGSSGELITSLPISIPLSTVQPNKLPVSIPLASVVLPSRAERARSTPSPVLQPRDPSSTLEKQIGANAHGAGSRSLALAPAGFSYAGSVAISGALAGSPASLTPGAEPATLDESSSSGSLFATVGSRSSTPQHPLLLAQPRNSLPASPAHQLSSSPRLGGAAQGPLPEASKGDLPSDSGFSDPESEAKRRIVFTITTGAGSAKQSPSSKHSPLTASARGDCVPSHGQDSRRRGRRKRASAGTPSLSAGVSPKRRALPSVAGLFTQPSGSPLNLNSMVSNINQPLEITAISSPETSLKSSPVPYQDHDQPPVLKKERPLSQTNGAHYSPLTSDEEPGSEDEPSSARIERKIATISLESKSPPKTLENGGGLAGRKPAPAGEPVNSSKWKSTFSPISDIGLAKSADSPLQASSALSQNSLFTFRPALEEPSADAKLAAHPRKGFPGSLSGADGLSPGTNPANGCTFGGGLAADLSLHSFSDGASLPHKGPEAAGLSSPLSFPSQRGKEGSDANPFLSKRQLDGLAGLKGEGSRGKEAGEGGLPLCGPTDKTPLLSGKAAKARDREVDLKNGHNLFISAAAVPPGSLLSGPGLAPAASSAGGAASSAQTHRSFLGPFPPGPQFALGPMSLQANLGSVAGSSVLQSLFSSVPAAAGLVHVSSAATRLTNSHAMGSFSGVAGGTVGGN
T1 sequence (Q9Y6K1 whole entry, looked up, the tested form may be a part): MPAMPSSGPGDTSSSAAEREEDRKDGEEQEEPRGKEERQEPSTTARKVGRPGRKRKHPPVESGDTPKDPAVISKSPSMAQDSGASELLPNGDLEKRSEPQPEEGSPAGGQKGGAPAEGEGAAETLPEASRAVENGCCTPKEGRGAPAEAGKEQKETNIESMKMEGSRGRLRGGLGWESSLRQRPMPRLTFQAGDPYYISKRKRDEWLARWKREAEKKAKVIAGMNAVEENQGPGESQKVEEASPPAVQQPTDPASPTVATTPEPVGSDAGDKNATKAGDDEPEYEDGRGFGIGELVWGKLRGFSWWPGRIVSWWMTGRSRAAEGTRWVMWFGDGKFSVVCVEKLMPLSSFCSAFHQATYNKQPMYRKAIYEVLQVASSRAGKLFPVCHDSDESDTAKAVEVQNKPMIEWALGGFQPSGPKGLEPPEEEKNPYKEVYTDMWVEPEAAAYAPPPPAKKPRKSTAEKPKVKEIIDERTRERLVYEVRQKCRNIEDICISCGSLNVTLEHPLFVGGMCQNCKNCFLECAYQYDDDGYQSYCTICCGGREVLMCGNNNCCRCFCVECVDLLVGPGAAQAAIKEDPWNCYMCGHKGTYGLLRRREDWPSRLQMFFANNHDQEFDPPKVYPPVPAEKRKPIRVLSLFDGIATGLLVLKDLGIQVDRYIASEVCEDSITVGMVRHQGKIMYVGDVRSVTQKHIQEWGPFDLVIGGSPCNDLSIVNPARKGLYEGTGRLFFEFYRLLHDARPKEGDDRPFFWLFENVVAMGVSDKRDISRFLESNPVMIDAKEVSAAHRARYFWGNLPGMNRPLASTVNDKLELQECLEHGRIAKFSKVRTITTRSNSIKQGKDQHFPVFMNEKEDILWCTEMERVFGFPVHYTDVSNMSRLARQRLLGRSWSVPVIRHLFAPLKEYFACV

Row | Compound | inhibition [1] | inhibition [2] | inhibition [3] | also measured
1 | COc1ccc(Cl)cc1CNCCc1ccc(CCC(=O)O)cc1 | inactive | inactive | < 20% | –
2 | COc1ccc(Cl)cc1C(=O)NCCc1ccc(CC(C)C(=O)O)cc1 (stereo not drawn) | inactive | inactive | < 20% | –
3 | COc1ccc(Cl)cc1C(=O)N(C)CCc1ccc(CCC(=O)O)cc1 | inactive | inactive | < 20% | –
4 | O=C(O)CCc1ccc(CCNC(=O)c2ccccc2Br)cc1 | inactive | inactive | < 20% | –
5 | COc1ccc(Cl)cc1C(=O)NCCc1ccc(CCC(N)=O)cc1 | inactive | inactive | < 20% | –
6 | COc1ccc(Cl)cc1C(=O)NCCc1ccc(CCC(=O)O)cc1 | inactive | inactive | 2.9% | inhibition [4]: inactive; inhibition [5]: inactive; inhibition [6]: inactive
7 | COc1ccc(Cl)cc1C(=O)NCCc1ccc(CCC(=O)N(C)C)cc1 | inactive | inactive | < 20% | –
8 | COc1ccc(Cl)cc1C(=O)NCCc1ccc(CCCO)cc1 | inactive | inactive | < 20% | –
9 | Nc1ncn([C@@H]2O[C@H](CO)[C@@H](O)[C@H]2O)c(=O)n1 | – | – | – | inhibition (MDA-MB-231 [7]): Active
10 | COc1ccc(Cl)cc1C(=O)NCCc1ccc(O)cc1 | inactive | inactive | 16% | EC50 [8]: 36 µM; inhibition [5]: > 60%; Activity (MDA-MB-231 [9]): Toxic; inhibition [6]: > 13%
11 | COc1ccc(Cl)cc1C(=O)N[C@@H](Cc1ccc(OCC(=O)O)cc1)C(=O)O | inactive | inactive | < 20% | inhibition (MDA-MB-231 [10]): Active; inhibition (MDA-MB-231 [11]): inactive; inhibition [5]: > 60%; Activity (MDA-MB-231 [9]): Non-toxic; inhibition [6]: > 13%
12 | O=C(O)CCc1ccc(CCNC(=O)c2cc(C(F)(F)F)ccc2Cl)cc1 | inactive | inactive | < 20% | inhibition [5]: > 60%; Activity (MDA-MB-231 [9]): Toxic; inhibition [6]: inactive
13 | O=C(O)CCc1ccc(CCNC(=O)c2cccc(Cl)c2)cc1 | inactive | inactive | < 20% | –
14 | O=C(O)CCc1ccc(CCNC(=O)c2cc(Cl)ccc2F)cc1 | inactive | inactive | < 20% | –
15 | COc1ccc(Cl)cc1C(=O)NCCc1ccc(C(=O)O)cc1 | inactive | inactive | < 20% | –
16 | COc1ccc(Cl)cc1C(=O)NCCc1cccc(CCC(=O)O)c1 | inactive | inactive | < 20% | –
17 | COc1ccc(Cl)cc1C(=O)NCCc1ccc(OCC(=O)O)cc1 | inactive | inactive | 15% | inhibition (MDA-MB-231 [10]): inactive; inhibition (MDA-MB-231 [11]): inactive; inhibition [5]: > 60%; Activity (MDA-MB-231 [9]): Non-toxic; inhibition [6]: > 13%
18 | COc1cccc(C(=O)NCCc2ccc(CCC(=O)O)cc2)c1 | inactive | inactive | < 20% | –
19 | CNC(=O)CCc1ccc(CCNC(=O)c2cc(Cl)ccc2OC)cc1 | inactive | inactive | < 20% | –
20 | COc1ccc(Cl)cc1C(=O)NCCc1ccc(/C=C/C(=O)O)cc1 | inactive | inactive | < 20% | –

Continued, in another order:

Row | inhibition [1] | inhibition [2] | inhibition [3] | Compound | also measured
21 | inactive | inactive | < 20% | COc1ccc(Cl)cc1C(=O)NCCc1ccc(CCC(=O)N2CCOCC2)cc1 | –
22 | inactive | inactive | < 20% | COc1ccc(Cl)cc1C(=O)NCCc1ccc(CC(=O)O)cc1 | –
23 | inactive | inactive | < 20% | O=C(O)CCc1ccc(CCNC(=O)c2cccnc2)cc1 | –
24 | inactive | inactive | < 20% | COc1ccc(Cl)cc1C(=O)NCCc1ccc(C(C)CC(=O)O)cc1 (stereo not drawn) | –
25 | inactive | inactive | < 20% | O=C(O)CCc1ccc(CCNC(=O)c2ccccc2F)cc1 | –
26 | inactive | inactive | < 20% | COc1ccc(Cl)cc1NC(=O)CCc1ccc(CCC(=O)O)cc1 | –
27 | inactive | inactive | < 20% | COc1ccc(Cl)cc1C(=O)NCc1ccc(CCC(=O)O)cc1 | inhibition [5]: > 60%; inhibition [6]: > 13%
28 | inactive | inactive | < 20% | COc1ccc(Cl)cc1C(=O)Nc1ccc(CCC(=O)O)cc1 | inhibition [5]: > 60%; inhibition [6]: > 13%
29 | inactive | inactive | < 20% | CCc1ccc(CCNC(=O)c2cc(Cl)ccc2OC)cc1 | –
30 | inactive | inactive | 14% | O=C(O)CCc1ccc(CCNC(=O)c2ccc([N+](=O)[O-])cc2)cc1 | inhibition [5]: > 60%; Activity (MDA-MB-231 [9]): Toxic; inhibition [6]: > 13%
31 | inactive | inactive | < 20% | COc1ccc(Cl)cc1C(=O)NCCc1ccccc1 | –
